In ChEMBL document CHEMBL3507680, “University of Dundee, Gates Library screen for HepG2 cell viability”:

test: Human HepG2 cell viability assay in 384 well format; assay type: toxicity, cell-based; set-up: dose 125 nL, time 70.5 hour; concentration not given beside the values; conditions: HepG2 cells, read-out: Inhibition

SMILES | cytotoxicity at 70.5 h
CN1CCCC(c2cncc(-c3cccc(C(F)(F)F)c3)n2)C1 (configuration not stated) | -8.63%
Cc1cc(C)nc(N2CCC(c3c(C(N)=O)sc4ccccc34)C2)n1 (configuration not stated) | -3.24%
CS(=O)(=O)N1C[C@@H](O)[C@H](N2CCN(c3ccccc3)CC2)C1 | 22.6%
Cc1nnc(C2CCN(c3ncccn3)CC2)o1 | -15%
NC(=O)c1ccc(C2CN(Cc3ccc(F)cc3)CCO2)nc1 (configuration not stated) | 27.6%
c1ccc(Oc2nccnc2C2CCN(C3CCOCC3)CC2)cc1 | -7.7%
Cc1cc(C2CCCN(S(=O)(=O)N(C)C)C2)ccn1 (configuration not stated) | 23.8%
CCCNC(=O)Nc1ncc(-c2cccnc2)s1 | -9.71%
CC(C)NC(=O)Nc1ncc(-c2cccnc2)s1 | -4.04%
CNC(=O)c1cn[nH]c1C1CCCN1c1nc(C)cc(C)n1 (configuration not stated) | -3.88%
Cc1cnc(CC2COCCN(C(=O)CN3CCOCC3)C2)cn1 (configuration not stated) | -4.65%
COc1ccc(CC2CN(Cc3cncn3C)CCO2)cc1 (configuration not stated) | -9.57%
Cc1nc(N)cc(C2CN(C(=O)c3cscn3)CCO2)n1 (configuration not stated) | -10.9%
O=C(O)c1ccccc1-c1cnc(Cn2c(=O)cc[nH]c2=O)s1 | -6.43%
Cc1cc(C)nc(C2CCN(C3CCCCC3)C2)n1 (configuration not stated) | -5.66%
CC(=O)N[C@@H]1CN(C(=O)Cc2coc3cc(C)ccc23)C[C@H]1O | -2.72%
CCn1ncc(C(=O)NCCc2nc(-c3cccnc3)n[nH]2)c1C | -3.1%
CCn1ncc(C(=O)NCCc2nc(-c3ccncc3)n[nH]2)c1C | -7.04%
CC(C)CC(NC(=O)c1cccs1)c1nc2cccnc2n1C (configuration not stated) | -5.14%
CC[C@H](Cn1ncc2ccccc2c1=O)NC(=O)c1cnc(C)cn1 | -12.4%
CC[C@H](Cn1ncc2ccccc2c1=O)NC(=O)c1ccccn1 | -7.7%
CC[C@@H](Cn1ncc2ccccc2c1=O)NC(=O)c1cnc(C)cn1 | -6.57%
CNc1ncc(CN(C)CCN2CCCCC2)cn1 | 36.6%
CC(C(=O)N(Cc1ccc(C#N)cc1)CC(F)(F)F)S(C)(=O)=O (configuration not stated) | -10.1%

SMILES | cytotoxicity at 70.5 h
Cc1nc(CNC(=O)NC2CC(C)(C)OC2(C)C)sc1C (configuration not stated) | -9.18%
Cc1ccc(-c2nc(CC(=O)NCC3CCCN(C(C)C)C3)cs2)o1 (configuration not stated) | 11.1%
O=C(CCC(=O)N1CCc2ccccc2C1)c1cccs1 | 2.72%
COCc1nc(-c2ccc(S(=O)(=O)N3CCCC3)cc2)cs1 | -3.85%
CC(c1ccccc1F)N(CC(N)=O)C1CC1 (configuration not stated) | -4.03%
CCC(=O)c1ccc(OCC(=O)NCC2CCCO2)cc1 (configuration not stated) | 0.0654%
CN(Cc1ccc(F)c(F)c1)C(=O)CCc1nc(-c2nnc[nH]2)no1 | -4.47%
CCOCCNC(=O)c1cnc(Sc2nccn2C)c(Cl)c1 | 2.36%
COCCN1CCC(CNc2nc3ccccc3o2)CC1 | 1.47%
COCCN1CCC(CNc2cnc3ccccc3n2)CC1 | -1.83%
CN1CCN(C(=O)c2cn(-c3ccc(C(F)(F)F)cn3)nn2)CC1 | -6.96%
CCN(CC)C(=O)c1cnc(Sc2nccn2C)c(Cl)c1 | -3.32%
CCc1ccc2c(c1)C(CCNC(=O)Cc1ccc(F)cc1)C(=O)N2 (configuration not stated) | 11.8%
CCc1ccc2c(c1)C(CCNC(=O)Cc1cccc(F)c1)C(=O)N2 (configuration not stated) | -4.81%
CC(c1ccccc1Cl)N(C(=O)CSCC(N)=O)C1CC1 (configuration not stated) | 12.5%
CN(CC1CC1)C(=O)c1cc2c(c(S(N)(=O)=O)c1)CCC2 | 2.25%
CCOc1cc(CNC(=O)NC2CC=CC2)ccc1OC(F)F | -5.65%
Cc1ccc(-n2cc(C)cn2)c(NC(=O)NC2(C)CCOC2)c1 (configuration not stated) | -2.69%
CCOc1cccc(CNC(=O)NC2CC=CC2)c1OC(F)F | 0.101%
Cc1ccc(Cl)c(NC(=O)NC2(C)CCOC2)c1 (configuration not stated) | -5.5%
Cc1ccc(-n2nnnc2SCN2CCCCC2=O)cc1C | -3.89%
CCc1ccc(C(=O)N2CCC(N(C)C(=O)OC(C)(C)C)C2)o1 (configuration not stated) | 0.0812%
CN(Cc1ccccc1)C(=O)c1cc2c(c(S(N)(=O)=O)c1)CCC2 | 30.7%
Cc1ccc(CN(C)C(=O)c2cc3c(c(S(N)(=O)=O)c2)CCC3)o1 | -1.72%

SMILES | cytotoxicity at 70.5 h
NS(=O)(=O)c1ccc(NCc2ccccc2F)cc1C(F)(F)F | 1.33%
Cc1cc(CN2CCN(Cc3ccc(C#N)cc3F)CC2)no1 | 1.27%
COc1ccc(NC(=O)N2CCN(CCSc3ccccc3)CC2)cc1 | 3.81%
Cc1cc(C2CCCN2C(=O)c2csc(-c3cnn(C)c3)n2)on1 (configuration not stated) | 2.44%
CCn1cc(NC(=O)N2CCN(C(=O)Oc3ccccc3)CC2)cn1 | -4.12%
Cc1cc(C2CCCN2C(=O)Nc2cn[nH]c2)on1 (configuration not stated) | -4.06%
CS(=O)(=O)c1ccccc1-n1cc(NC(=O)CC(F)(F)F)cn1 | -4.54%
CC(C)(C)CC(=O)Nc1cnn(-c2ccccc2S(C)(=O)=O)c1 | -5.49%
CC(C)(C)C(=O)Nc1cnn(-c2ccccc2S(C)(=O)=O)c1 | -9.09%
CCc1ccc(S(=O)(=O)Nc2ccncc2)s1 | -5.81%
Cc1c(C[S+](C)[O-])cccc1NC(=O)c1cc(Cl)ccn1 (configuration not stated) | -2.39%
CN1CCN(C2CCN(CC(O)c3ccccc3F)CC2)C1=O (configuration not stated) | 16.4%
N#Cc1cnc2c(F)cc(F)cc2c1NC1CCN(CC(N)=O)CC1 | -5.14%
CCc1ccc(S(=O)(=O)Nc2cnccc2C)s1 | -4.13%
CCS(=O)(=O)N1CCN(C(C)(C)CO)CC1 | -3.71%
CCn1c(C)cc(C(=O)Nc2ccccc2CN(C)C(C)=O)c1C | -9.11%
CN(CC(C)(CO)CO)C(=O)Nc1cc(Cl)cc(Cl)c1 | -4.43%
CN(Cc1ccc(Br)c2cccnc12)S(C)(=O)=O | 12.8%
OCCN(CCO)Cc1ccc(Br)c2cccnc12 | -1.86%
CC(NCCCN1CCCC1=O)c1cc(Br)ccc1F (configuration not stated) | -5.24%
Cc1cc(CN2CCN(Cc3ccc(C#N)cc3OC(F)F)CC2)no1 | 18.7%
CCN(CCO)Cc1ccc(Br)c2cccnc12 | -1.88%
CC(NCC1(N(C)C)CCOCC1)c1ccc(SC(F)F)cc1 (configuration not stated) | 2.6%
CN(Cc1nnc(C2CC2)o1)Cc1ccccc1N1CCOCC1 | -4.09%

SMILES | cytotoxicity at 70.5 h
COCCCS(=O)(=O)N1CCN(C(C)(C)CO)CC1 | -7.76%
Cc1ccc(S(=O)(=O)NC(CO)CC(C)C)cc1N(C)C (configuration not stated) | -3.97%
CC(C)Nc1nnc(SCc2nnc(C(C)(C)C)o2)s1 | -6.2%
CN(Cc1c(F)cccc1Cl)C(=O)Cn1cnc(C#N)n1 | -7.04%
Cc1ccc(OCC(=O)Nc2ccc(S(C)(=O)=O)cc2)cc1C | 14%
O=C(NCCN1CCOCC1)c1cnc(-c2ccccc2F)s1 | -3.87%
CCc1nnc2n1CCN(C(=O)C1CCC(n3cccc3)CC1)C2 (configuration not stated) | -6.9%
Cn1ccc(C(=O)Nc2nccn2Cc2ccccc2Cl)cc1=O | -7.59%
Cc1nccn1-c1ccc(NS(=O)(=O)c2cccnc2)cn1 | -1.79%
CC(Cc1ccccc1F)C(=O)Nc1ccc(OCCC(N)=O)cc1 (configuration not stated) | -3.92%
CS(=O)(=O)CCC(=O)Nc1nccn1Cc1ccccc1Cl | 0.444%
CCN(CC)S(=O)(=O)CC(=O)N1CCc2ccc(C)cc21 | -7.29%
N#Cc1ccc(F)c(CNc2ccc(F)cc2OCCO)c1 | 16.6%
CC(C)N1CCC(CNC(=O)CCc2cc(F)ccc2F)C1 (configuration not stated) | 14.8%
Cc1cc(CN(C2CC2)C(C)C(C)C)on1 (configuration not stated) | 1.68%
COCCN(CCOC)C(=O)c1ccn(-c2ccccc2Cl)n1 | 17.5%
Cc1nc(CN2CCCN(C(=O)c3cccn3C)CC2)cs1 | 1.17%
COc1cc2c(nn1)CCN(Cc1nnc(Cc3ccccc3)o1)C2 | -3.6%
COC(=O)C(C)N(Cc1cc(C)on1)C1CC1 (configuration not stated) | -5.22%
CNC(=O)N1CCOCC1c1c(C)nn(C)c1C (configuration not stated) | 2.35%
Cc1noc(C)c1C(=O)N(C)C(C)c1ccncc1 (configuration not stated) | -5.68%
O=C(NCC1CCOC1)c1cc(-c2ccc(F)cc2)[nH]n1 (configuration not stated) | -10.8%
O=C1NCCCCC1NC(=O)N1CCCc2ccccc21 (configuration not stated) | -12.7%
CC(Oc1cccc(Cl)c1)C(=O)Nc1cnn(CC(=O)NC2CC2)c1 (configuration not stated) | -17.2%

SMILES | cytotoxicity at 70.5 h
CC(NC(=O)NC1CCN(Cc2ccncc2)CC1)c1cccc(F)c1 (configuration not stated) | -6.53%
CN(C)c1cccc(C(=O)Nc2cnn(Cc3ccncc3)c2)c1 | -11.3%
CS(=O)(=O)c1ccc(CNC(=O)NCc2cc[nH]n2)cc1 | -12.3%
Cc1ccc(-c2cc(C(=O)NCC3CCOC3)n[nH]2)s1 (configuration not stated) | 20.2%
CC(C)c1noc(C(C)N2CCC(c3nc4ccccc4[nH]3)CC2)n1 (configuration not stated) | -7.42%
Cc1ccc(F)c2c1N(C(=O)c1ccc(S(C)(=O)=O)cc1)CCC2 | -10.6%
Cc1ccc(-c2nc(C(=O)N(C)CC(=O)N(C)C)cs2)c(C)c1 | 20.9%
Cc1noc(C(C)N2CCC(c3nc4ccccc4[nH]3)CC2)n1 (configuration not stated) | -3.97%
CC(=O)NCc1ccc(C(=O)N2CCCc3c(F)ccc(C)c32)o1 | -2.6%
CC(C)Cn1cc(NC(=O)c2cccc(N(C)C)c2)cn1 | -8.55%
O=C1OCCCN1Cc1nc(-c2ccncc2)no1 | -12.6%
CN(c1ncc(S(N)(=O)=O)s1)C1CCc2ccccc2C1 (configuration not stated) | -10%
CNS(=O)(=O)CC(=O)N(C1CC1)C1Cc2ccccc2C1 | -13.4%
Cc1ccccc1Cc1nc(CSc2nnc(N)n2C2CC2)no1 | -12.1%
CCSc1cc(C(=O)N(CC(F)F)C(C)C)ccn1 | -3.2%
C=C(C)CN(CC)C(=O)CN1CCCC1C(=O)N(C)C (configuration not stated) | -4.6%
CCn1cc(CN2CCN(C(=O)N3CCOCC3)CC2)cn1 | 16.2%
CC(C)CN(C)S(=O)(=O)c1ccc(Cl)cc1C#N | 34.3%
CC(CN1CCOCC1)n1cncc1-c1ccc2c(c1)CCCN2C (configuration not stated) | -10.1%
CC(=O)NC1CCN(c2cc(C3CCNCC3)ccn2)CC1 | -2.92%
CC(=O)N1CCC(N2CCC(c3nc(C)cc(C)n3)C2)CC1 (configuration not stated) | -3.99%
